The values that follow come from article PMC6758725, “Novel 4-arylaminoquinazolines bearing N,N-diethyl(aminoethyl)amino moiety with antitumour activity as EGFR^wt-TK inhibitor” (Journal of Enzyme Inhibition and Medicinal Chemistry, 2019).

The test system of one series is SW480 cells. Briefly: MTT antiproliferative assay, SW480 cells. The series is classed as cell-based. Conditions: Homo sapiens, read-out: IC50 (µM) SW480. As to the method:
(§1) Methyl thiazolyl tetrazolium (MTT) colorimetric assay (MTT assay)[17]^,[20] was used to evaluated the antiproliferative activities of these novel compounds against four human tumour cell lines including SW480, A549, A431 and NCI-H1975.
(§2) Figure 2. […] (A) SW480 cells, (B) A549 cells, (C) A431 cells, (D) NCI-H1975 cells. […] All error bars were represented in mean ± SE.
(§3) The effect of compounds on cell proliferation was determined using the MTT (3–(4,5-dimethylthiazol-2-yl)-2,5-diphenyltetrazolium bromide) method, which was carried out as previously described[12]^,[16].
On the technique in general: Tetrazolium dyes change colour on reduction, which living cells bring about.

Series [1] deals with A549 cells. Kind of series: MTT antiproliferative assay, A549 cells. Particulars: Homo sapiens, read-out: IC50 (µM) A549. In kind it is cell-based. As to the method:
as §1, §2, §3

The next series concerns A431 cells. Briefly: MTT antiproliferative assay, A431 cells. The series is classed as cell-based. Conditions: Homo sapiens, read-out: IC50 (µM) A431. As to the method:
as §1, §2, §3

For another series, the system named is NCI-H1975 cells. Briefly: MTT antiproliferative assay, NCI-H1975 cells. The series is classed as cell-based. Conditions: Homo sapiens, read-out: IC50 (µM) NCI-H1975. As to the method: as §1, §2, §3
Series [2] has as its system A549 cells. Kind of series: Cell apoptosis analysis (Annexin V-FITC/PI, FACS). In kind it is cell-based, human. Particulars: for numbers of late apoptotic cells compared with control groups / numbers of necrosis cells compared with control groups: 48 h. On the procedure: The process of controlled cellular death known as apoptosis has an important central role not only in normal homeostatic maintenance of tissues, but also in numerous diseases such as cancer, neurodegenerative, autoimmune, and cardiovascular diseases. After treatment by compound 6a for 48 h, the apoptosis of A549 cells were measured by fluorescence-activated cell sorter (FACS) analysis with annexin V-fluorescein isothiocyanate (FITC) and propidium iodide (PI) labelling.
Figure 4. Effect of compound 6a on cell apoptosis in A549 cells. (A) Representative density plots were obtained by FACS, (B) histograms of percentages of apoptotic cells in each group from (A) analysed by GraphPad Prism5.
Following treatment with different concentrations of compound 6a, the apoptosis of A549 cells was measured using Annexin V-FITC/PI apoptosis detection kit (KeyGEN BioTECH, Nanjing, China), according to the manufacturer’s instructions. Apoptosis of the treated cells was then detected by flow cytometry using ACEA NovoCyte.

In series [3] the test system is A549 cells. Briefly: Cell cycle analysis (PI, flow cytometry). In kind it is cell-based, human. Conditions: 48 h; for percentage of cells in G0/G1 phase: untreated 51.97%. An excerpt: Figure 5. Effect of compound 6a on the cell cycle phase distribution in A549 cells. (A) Representative profiles were obtained by FACS, (B) histograms of percentages of percentages of cell populations in the G0/G1, S and G2/M phase in each group from (A) analysed by GraphPad Prism5. […] Percentage of cells in G0/G1, S and G2/M phases were indicated. All values were expressed as mean ± SE. *p < .05, **p < .01 and ***p < .001 indicate significant differences compared with the control at the same phase.
Following treatment with different concentrations of compound 6a, the distribution of cell cycle was measured using cell cycle detection kit (KeyGEN BioTECH, Nanjing, China), according to the manufacturer’s instructions. The cell cycle of the treated cells was then detected by flow cytometry using ACEA NovoCyte.

The target of series [4] is wild type epidermal growth factor receptor tyrosine kinase (EGFR^wt-TK) (Homo sapiens, UniProt P00533). Kind of series: In vitro EGFR^wt tyrosine kinase ELISA assay.
Sequence of wild type epidermal growth factor receptor tyrosine kinase (EGFR^wt-TK) (P00533 25-1210): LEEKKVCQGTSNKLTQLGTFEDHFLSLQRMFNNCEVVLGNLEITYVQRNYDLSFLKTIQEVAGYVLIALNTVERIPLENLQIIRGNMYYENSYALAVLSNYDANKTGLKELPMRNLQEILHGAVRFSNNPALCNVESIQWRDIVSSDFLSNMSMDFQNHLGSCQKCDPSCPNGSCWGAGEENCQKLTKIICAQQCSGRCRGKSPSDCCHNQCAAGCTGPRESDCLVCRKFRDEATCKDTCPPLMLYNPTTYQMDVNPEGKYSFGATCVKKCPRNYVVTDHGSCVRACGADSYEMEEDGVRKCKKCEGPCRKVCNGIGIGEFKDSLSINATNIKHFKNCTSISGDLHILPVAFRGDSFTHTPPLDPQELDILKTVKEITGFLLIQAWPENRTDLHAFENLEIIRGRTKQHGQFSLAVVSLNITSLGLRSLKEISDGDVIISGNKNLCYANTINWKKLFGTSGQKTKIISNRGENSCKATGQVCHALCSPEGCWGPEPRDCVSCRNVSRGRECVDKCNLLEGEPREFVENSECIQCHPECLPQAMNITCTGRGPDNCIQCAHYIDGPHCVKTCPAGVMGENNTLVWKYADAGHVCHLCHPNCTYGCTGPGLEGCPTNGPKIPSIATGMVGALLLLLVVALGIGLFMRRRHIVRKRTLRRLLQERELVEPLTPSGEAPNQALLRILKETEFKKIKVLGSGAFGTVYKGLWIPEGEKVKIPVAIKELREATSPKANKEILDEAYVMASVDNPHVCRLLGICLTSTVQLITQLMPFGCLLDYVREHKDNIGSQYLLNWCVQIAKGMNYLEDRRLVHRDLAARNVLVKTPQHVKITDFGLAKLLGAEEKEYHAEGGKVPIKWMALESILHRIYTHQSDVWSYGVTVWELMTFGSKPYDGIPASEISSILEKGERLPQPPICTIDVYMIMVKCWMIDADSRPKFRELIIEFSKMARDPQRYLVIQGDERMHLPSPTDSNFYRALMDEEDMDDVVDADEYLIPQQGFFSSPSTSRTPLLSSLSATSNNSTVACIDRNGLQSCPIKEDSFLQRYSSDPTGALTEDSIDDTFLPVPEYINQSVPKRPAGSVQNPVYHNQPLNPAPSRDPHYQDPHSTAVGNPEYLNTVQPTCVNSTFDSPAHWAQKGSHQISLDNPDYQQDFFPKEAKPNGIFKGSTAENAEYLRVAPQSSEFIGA
[5] abbreviates: SW480, MTT, 72 h of treatment, mean ± SD of at least three independent experiments.
Setting [6] is: A549, MTT, 72 h of treatment, mean ± SD of at least three independent experiments.
Where [7] appears, read: A-431, MTT, 72 h of treatment, mean ± SD of at least three independent experiments.
The mark [8] stands for this setting: NCI-H1975, MTT, 72 h of treatment, mean ± SD of at least three independent experiments.

Each structure is given as a SMILES string. Where two headings read alike, the source gives them in different places.

Consider `CCN(CC)CCNCc1ccc(-c2ccc3ncnc(Nc4ccc(OCc5cccc(F)c5)c(Cl)c4)c3c2)o1` [Compound 6a, 4–(3-chloro-4-(3-fluorobenzyloxy)phenylamino)-6–(5-((N,N-diethyl(aminoethyl))aminomethyl)furan-2-yl)quinazoline], for which the IC50 in the series on SW480 cells (setting [5]) was 6.67 ± 0.95 µM; in the series on A549 cells [1] (setting [6]), 5.46 ± 0.19 µM; with A431 cells (setting [7]), 2.21 ± 0.25 µM; with NCI-H1975 cells (setting [8]), 9.79 ± 0.07 µM; in series [4], 0.0156 µM. The “numbers of late apoptotic cells compared with control groups” value in the series with A549 cells [2] (A549, 10 µM) is on record as “significantly higher”; in the series with A549 cells [2] (A549, 20 µM), “significantly higher”. Besides, the “numbers of necrosis cells compared with control groups” value in the series on A549 cells [2] (A549, 20 µM) is “significantly higher”. Also, in the series on A549 cells [2] (A549, 48 h, tested concentrations 20-2.5 µM, versus control), the “early apoptosis of A549 cells” value is on record as “not significantly influenced”. Also, the “percentage of cells in G0/G1 phase” value with A549 cells [3] (A549, 2.5 µM, PI) is 54.15%; in the series with A549 cells [3] (A549, 5 µM, PI), 55.44%; with A549 cells [3] (A549, 10 µM, PI), 51.77%; in the series with A549 cells [3] (A549, 20 µM, PI), 62.45%. The “effect on cell cycle of A549 cells” value in the series with A549 cells [3] (A549, 20, 10, 5 and 2.5 µM) is listed as “arrested in the G0/G1 phase”.
Consider `CCN(CC)CCNCc1ccc(-c2ccc3ncnc(Nc4ccc(F)c(Cl)c4)c3c2)o1` [Compound 6b, 4–(3-chloro-4-fluorophenylamino)-6-(5-((N,N-diethyl(aminoethyl))aminomethyl)furan-2-yl)quinazoline], for which the melting point fell in the range of 98.3 to 99.8 °C. Also, the IC50 in the series with SW480 cells (setting [5]) was determined as 14.9 ± 2.43 µM. For the same compound, in the series with A549 cells [1] (setting [6]), the IC50 stood at 18 ± 0.62 µM. Moreover, the IC50 with A431 cells (setting [7]) came out at 3.92 ± 1.1 µM. Further, the IC50 in the series on NCI-H1975 cells (setting [8]) was 17.55 ± 0.03 µM.
`C#Cc1cccc(Nc2ncnc3ccc(-c4ccc(CNCCN(CC)CC)o4)cc23)c1` [Compound 6c, 4–(3-ethynylphenylamino)-6-(5-((N,N-diethyl(aminoethyl))aminomethyl)furan-2-yl)quinazoline] gave a melting point of 81.4 to 82.3 °C. The IC50 in the series on SW480 cells (setting [5]) was 10.8 ± 1.34 µM. Besides, the IC50 in the series on A549 cells [1] (setting [6]) is 12.1 ± 0.37 µM. In addition, the IC50 in the series on A431 cells (setting [7]) came to 2.59 ± 0.15 µM. Further, the IC50 with NCI-H1975 cells (setting [8]) amounted to 15.6 ± 1.41 µM.
In the same order, the values of `C/C=C/c1ccc(Nc2ncnc3ccc(-c4ccc(CNCCN(CC)CC)o4)cc23)cc1` [Compound 6d, 6-(5-((N,N-diethylethyl)aminomethyl)furan-2-yl)-4–(4-(E)-(propen-1-yl)phenylamino)quinazoline] are 89.9 to 91.3 °C, 4.21 ± 1.16 µM, 4.1 ± 0.66 µM, 2.09 ± 1.01 µM and 5.13 ± 0.55 µM.
As to `CS(=O)(=O)CCNCc1ccc(-c2ccc3ncnc(Nc4ccc(OCc5cccc(F)c5)c(Cl)c4)c3c2)o1` [Lapatinib, reference compound], the IC50 is 12.6 ± 1.35 µM with SW480 cells (SW480, 72 h); 14.9 ± 1.21 µM with A549 cells [1] (A549, 72 h); 4.8 ± 0.71 µM with A431 cells (A-431, 72 h); 12.7 ± 0.73 µM in the series on NCI-H1975 cells (NCI-H1975, 72 h). Also, the “numbers of late apoptotic cells compared with control groups” value in the series with A549 cells [2] (A549, 20 µM) is on record as “significantly higher”. Also, in the series with A549 cells [2] (A549, 20 µM), the “numbers of necrosis cells compared with control groups” value is “significantly higher”. For the same compound, the “percentage of cells in G2/M phase” value with A549 cells [3] (A549, 20 µM, PI) is reported as 19.41%. In addition, the “percentage of cells in S phase” value in the series on A549 cells [3] (A549, 20 µM, PI) came to 19.93%.

The IC50 is the concentration that inhibits the measured activity by half. As usually defined, the melting point is the temperature, or range, at which the solid turns liquid.
